Assay results as given in US20210260069A1, “IRE1a INHIBITOR IN COMBINATION WITH CANCER [sequence] AGENT FOR CANCER TREATMENT” (Fosun Orinove PharmaTech, Inc., priority 2018, published 2021).

Key:
7-day toxicity study = format: in vivo; settings: cynomolgus monkey
[1] = system: human ovarian carcinoma A2780 tumor cells; experiment: A2780 ovarian carcinoma xenograft (Example 18); format: in vivo, female NCr nu/nu mice; settings: Orin 1001 300 mg/kg/day oral 28 days; paclitaxel 15 mg/kg iv weekly; endpoint 2000 mm^3 or Day 60
Procedure: (§1) Orin 1001 was administered by oral gavage in a xenograft mouse model using female NCr nu/nu mice injected subcutaneously with human ovarian carcinoma A2780 tumor cells. Animals were assigned to 4 groups (n=6/group); Vehicle control administered by oral gavage for 28 days, Orin 1001 administered via oral gavage at 300 mg/kg/day for 28 consecutive days, paclitaxel administered weekly by iv at 15 mg/kg, or Orin 1001 administered in combination with paclitaxel.
The percent tumor growth delay was calculated using the following equation: TGD (%)=[T-C/C]×100, where T-C is the difference in time to tumor endpoint from Treated (T) and Control (C).

[2] = system: human breast adenocarcinoma MDA-MB231 tumor cells; format: in vivo
Procedure: Orin 1001 was administered by oral gavage in combination with paclitaxel in a xenograft mouse model using female NCr nu/nu mice injected subcutaneously with human breast adenocarcinoma MDA-MB231 tumor cells. To evaluate the effect of Orin 1001 in combination with paclitaxel on early, mid or late stage tumor growth, dosing was initiated either on Day 1 (when tumors reached 225-250 mm^3), Day 14 or Day 28 of tumor growth. Orin 1001 was administered via oral gavage at 300 mg/kg/day in combination with paclitaxel at 10 mg/kg iv, weekly (n=10/group) for up to 60 days.

[3] = system: human glioblastoma U-87 MG tumor cells; experiment: U-87 MG glioblastoma xenograft (Example 19); format: in vivo, female NCr nu/nu mice
Procedure: as §1, with “glioblastoma U-87 MG” for “ovarian carcinoma A2780”, “cells, a glioblastoma multiforme (GBM) cell line.” for “cells.”
The percent tumor growth delay was calculated using the following equation: TGD (%)=[T-C/C]×100; where T-C is the difference in time to tumor endpoint from Treated (T) and Control (C).
The time to tumor endpoint (TTE) for each animal was further calculated using the following equation: TTE (days)=log 10 (endpoint volume, mm^3)-b/m, where b is the intercept and m is the slope of the line obtained by linear regression of the log-transformed tumor growth data set.

[4] = Orin 1001 300 mg/kg/day oral 28 days, paclitaxel 15 mg/kg iv weekly, endpoint 2000 mm^3 or Day 60

COc1cc2c(C)c(CC(=O)N3CCOCC3)c(=O)oc2c(C=O)c1O [Orin 1001]
5-fold safety margin (7-day toxicity study): 750 mg/kg/day | NOAEL at 7 day (7-day toxicity study; in vivo, read-out: No Observable Adverse Effect Level (NOAEL)): 150 mg/kg/day | percent tumor growth delay (TGD) [1]: 29% | clinical signs of toxicity ([2]; 300 mg/kg/day oral gavage with paclitaxel 10 mg/kg iv weekly, up to 60 days): no clinical signs of toxicity | tolerability of extended oral dosing ([2]; up to 60 consecutive days): well tolerated | percent tumor growth delay (TGD) [3, 4]: 13% | time to tumor endpoint (TTE) [3, 4]: 29.3 days | tumor delay effect over the control ([3]; each agent alone): not very significant
